One molecule from patent publication US9326938B2 (National Yang Ming Unviversity, priority 2013, dated 2016) can be followed below.

In data set [1] the test system is HCT116 tumor-bearing mice. In words: In vivo antitumor activity. Set-up: species or system Balb-c/nude mice. The following applies: 10 mg/kg i.v. on days 0 and 7, compared to control mice. The procedure: (§1) The HCT116 cells were transplanted subcutaneously into the rear of 4-week female Balb-c/nude mice (1×10^6 cells/0.1 mL) At 4-6 weeks post-transplantation, HCT116 tumor-bearing mice (tumor volume: approximately 500 mm^3) were used in the antitumor activity study. Mice were treated i.v. via the tail vein on days 0 and 7. Animals were then injected with a drug PBS solution (free Dox, Dox-loaded polymer-incorporated nanoparticles, and Dox-loaded oligomer-contained nanoparticle complexes at a dose of 10 mg/kg). Tumor size was measured three weekly using a Vernier's caliper. To evaluate animal wellness and clinical status, the body weight of mice was recorded.

Data set [2] can be described thus: Body weight of mice in antitumor study. The data set is classed as in vivo, Balb-c/nude mice. As to conditions: 10 mg/kg i.v. on days 0 and 7, during the administration period. Here is the method:
as §1

For `COc1cccc2c1C(=O)c1c(O)c3c(c(O)c1C2=O)C[C@@](O)(C(=O)CO)C[C@@H]3O[C@H]1C[C@H](N)[C@H](O)[C@H](C)O1` [free Dox, doxorubicin], the Tumor growth result in data set [1] is reported as “inhibited tumor growth”. In data set [2], the “Body weight of mice” value was “obvious weight loss”.
